Measurements as given in article PMC6769468, “Endogenous Neuropeptide Nocistatin Is a Direct Agonist of Acid-Sensing Ion Channels (ASIC1, ASIC2 and ASIC3)” (Biomolecules, 2019).
Ends that are not written are not given here.

Experiments:
[1] = test system: homomeric ASICs; assay: Whole-cell current, homomeric ASICs in oocytes (all isoforms together); assay type: cell-based, rat
Description: (§1) Oocytes expressed rASIC1a, rASIC1b, rASIC2a, and rASIC3 homomeric channels were prepared as described. Injected oocytes were kept for two–three days at 19 °C and then for up to seven days at 15 °C in ND-96 medium supplemented with gentamycin (50 μg·mL^−1) and containing (in mM): 96 NaCl, 2 KCl, 1.8 CaCl2, 1 MgCl2, and 10 HEPES titrated to pH 7.4 with NaOH. Electrophysiological recordings were performed using the GeneClamp500 amplifier (Axon Instruments, Inverurie, UK) at a holding potential of -50 mV. The data were filtered at 20 Hz and digitized at 100 Hz using the L780 AD converter (L-Card, Moscow, Russia). Microelectrodes were filled with 3 M KCl. The external bath solution was ND-96 with pH adjusted to 7.4/7.8 (10 mM HEPES) /8.5 (10 mM Tris). Nocistatin containing solutions were freshly prepared and buffered each experimental day in ND-96 bath solution (pH 7.4/7.8/8.5). Proton-activated currents through ASIC channels were elicited by application of ND-96, in which 10 mM of HEPES was substituted with 10 mM MES at pH 5.5/ 10 mM acetic acid at pH 4.5. The whole-cell recording was performed if a response to the control pH stimulus was stable in at least two replicates. Nocistatin-activated currents were elicited by application of nocistatin containing solutions with various concentrations of the peptide.
(§2) Extracellular solutions were applied using a computer-controlled valve system with a flow rate of 1 mL/min. The oocyte chamber volume was 80 µL. The validity of the application system for studying ASIC channels expressed in oocytes was confirmed in experiments by application of a Cl-free solution (containing (in mM): 130 NMDG, 1 MgGluc2, 2 KGluc, 5 HEPES) (pH 7.4). Fast application of proton/peptide-activating solution was performed at a flow rate of 1 mL/sec (the change of the bath solution occurred within 100 ms), followed by PC controlled flow stopping (from 5 to 15 s).

[2] = test system: mouse; details: cited from earlier work
Excerpt: (§3) The nocistatin in mammalian is expressed as a precursor protein coding three neuropeptides (nocistatin, nociceptin, and Orphanin FQ2). […] Nocistatin is well represented in different parts of the brain and spinal cord. […] Nocistatin was studied in animal models as a prospective molecule together with opi ...

[3] = test system: canonical transient receptor potential cation (TRPC) channels; details: via unidentified G-coupled receptor(s), Gαq/11-phospholipase C-protein kinase C pathway; ref [31]; cited from earlier work
Excerpt: as §3

[4] = ref [27]; cited from earlier work
Excerpt: as §3

[5] = test system: NIPSNAP1; details: ref [32]; cited from earlier work
Excerpt: as §3

[6] = test system: mice; details: ref [28]; cited from earlier work
Excerpt: as §3

[7] = molecular target: T1, rat ASIC1a (Rattus norvegicus, UniProt P55926); assay: Inhibition of pH 5.5-induced ASIC1a current following rNS action; assay type: cell-based
T1 construct: expressed in transfected cells; host or cells: Xenopus laevis oocytes (injected)
T1 sequence (P55926 1-526): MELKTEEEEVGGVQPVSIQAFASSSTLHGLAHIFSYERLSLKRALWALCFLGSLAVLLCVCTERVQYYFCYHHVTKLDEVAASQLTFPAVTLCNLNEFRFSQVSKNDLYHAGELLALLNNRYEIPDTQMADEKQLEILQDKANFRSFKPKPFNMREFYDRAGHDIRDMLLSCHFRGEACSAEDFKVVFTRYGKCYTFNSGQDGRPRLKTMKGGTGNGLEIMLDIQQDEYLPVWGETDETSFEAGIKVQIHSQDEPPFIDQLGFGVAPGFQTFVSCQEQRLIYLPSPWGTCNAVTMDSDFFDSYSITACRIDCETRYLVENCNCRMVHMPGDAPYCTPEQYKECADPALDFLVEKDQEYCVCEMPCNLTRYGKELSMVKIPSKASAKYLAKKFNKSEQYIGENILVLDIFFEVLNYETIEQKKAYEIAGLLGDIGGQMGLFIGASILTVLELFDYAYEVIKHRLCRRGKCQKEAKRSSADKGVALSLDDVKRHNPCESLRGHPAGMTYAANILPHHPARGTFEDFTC
Description: as §1, §2
(c) Generalized logistic differential equation (the four-parameter logistic nonlinear regression model or a Hill function) F3(x) = ((A1 – A2)/(1 + (x/x0)^nH)) + A2, where F3(x) is the response value at a given nocistatin concentration, x is the concentration of nocistatin; A1 is the control response value (fixed at 100%) or the minimum asymptote of the response when concentration = 0; A2 is the response value at maximal inhibition or the maximum asymptote or the stabilized response for an infinite concentration (% of control), x0 is the concentration at which 50% of the channels are expected to show the response (or the response halfway between the minimum response asymptote A1 and the maximum response asymptote A2) (IC50 value) and nH is the Hill coefficient (a level of cooperativity). The maximum amplitude (Imax) was calculated for each oocyte by individual fitting; the data were normalized to it, then the normalized data were averaged and fitted by the logistic equations F1(x) and F2(x).
All data are presented as mean ± SEM. The significance of normalized data differences was determined with a non-parametric Kruskal-Wallis ANOVA test with the significance level * p < 0.05 and ** p < 0.01; ns, non-significant.

[8] = amplitude of pH 5.5-induced current, F3, n = 5
[9] = pH 5.5 stimulus after 0.125–0.5 mM nocistatin pretreatment, n = 5

MPRVRSVVQARDAEPEADAEPVADEADEVEQKQLQ [rNS]
Response to a pH drop after washing out the peptide ([1]; after washout): completely restored after washing out the peptide | Response to rapid acidification after activation by the peptide ([1]; pH drop after 1 mM rNS): did not respond further to rapid acidification after activation by the peptide | Effect of application at resting pH 7.4 ([1]; resting pH 7.4, 1 mM rNS): causes rapidly activating inward currents in homomeric ASICs | Effect on nociceptin-caused allodynia and thermal hyperalgesia ([2]; doses of 0.5–500 pg per mouse, ref [29]): eliminated allodynia and thermal hyperalgesia effects | Effect in algogenic-induced nociceptive flexion test ([2]; i.pl. 0.01–1 pmol per mouse, ref [30]): induced pronociceptive responses | Effect on TRPC channels [3]: opening of canonical transient receptor potential cation (TRPC) channels | Effect on scopolamine-induced impairment of learning and memory [4]: prevented the disruption of learning and memory processes | Binding to NIPSNAP1 [5]: nocistatin binding proteins | Effect in elevated plus-maze test [6]: produced anxiogenic-like actions | Reduction of the 1st versus the 2nd component of the current ([7]; IC50 comparison): reduced the 1st component of the current twice as effectively | nH of inhibition, 1st component [7, 8]: 3.5 ± 0.4 | nH of inhibition, 2nd component [7, 8]: 1.9 ± 0.2 | nH, integral current inhibition ([7]; integral of pH 5.5-induced current after nocistatin, F3): 2.9 ± 0.4 | IC50 ([7]; integral of pH 5.5-induced current after nocistatin, F3 (fitted much worse than amplitude)): 150 ± 20 µM | Concentration at which nocistatin acts as an inhibitor ([7]; low concentrations, Figure 2d and S2B): ≤ 0.2 mM | tmax1, 1st component of proton-induced current [7, 9]: 0.495 ± 0.085 s | tmax2, 2nd component of proton-induced current [7, 9]: 1.415 ± 0.112 s
